Here are results for 1 compound from patent US10239871B2, “Compounds and methods for regulating integrins” (ADHAERE PHARMACEUTICALS, INC., priority 2012, dated 2019).

Data set [1] relates to Human macrophages. The data set is described as follows: mRNA levels of pro-inflammatory factors in LPS-treated human macrophages. The format is cell-based. The note with it: co-treated with LPS. How it is done:
It was shown that β2 integrin agonist leukdherin LA1 modulates the expression levels of various pro-inflammatory factors in cells. Human macrophages were treated with LPS in the absence or presence of LA1 in vitro and determined the levels of mRNA in the cells at various time points using Nanostring inflammation array (184 genes) and exiqon microRNA panels.

In data set [2] the test system is CD11b/CD18. Kind of data set: Cell adhesion assay, primary rat macrophages on immobilized fibrinogen. It counts as cell-based. The note with it: vs non-activating Ca2+ and Mg2+. As to the method:
K562 cells stably transfected with plasmid encoding wild-type integrin CD11b/CD18 (K562 WT cells) have been described previously and were maintained in Iscove's Modified Dulbecco's Medium (IMDM) supplemented with 10% FBS and G418 (0.5 mg/ml). The murine macrophage cell line (RAW 264.7 cells) was obtained from ATCC and the cells were maintained in DMEM supplemented with 10% heat-inactivated FBS according to the manufacturer's instructions. The primary rat peritoneal macrophages were isolated from the wild type Fisher 344 rats that had been previously injected with 5 mL of Brewer's thioglycolate broth (Sigma-Aldrich). Macrophage purity was directly analyzed by single channel flow cytometry using rat macrophage specific monoclonal antibodies ED1 (AbD Serotec, Raleigh, N.C.), WT.5 (BD Biosciences) and His36 (BD Biosciences). Purity was typically >85%. Macrophages were used in assays immediately upon isolation.
Cell adhesion assays using K562 WT, murine RAW 264.7 cells and the primary rat macrophages were performed as previously described and used immobilized fibrinogen as the ligand of CD11b/CD18 [49]. […] The remaining adherent cells were fixed using 4% formaldehyde and quantified by imaging microscopy as previously described (22, 63). […]

Data set [3] deals with CD11b/CD18 (Homo sapiens, UniProt P11215). The data set is described as follows: Flow chamber assay (adhesion under wall shear stress). It counts as cell-based. On the set-up: expressed in transfected cells; host or cells: 293T cells, transient transfection. The note with it: 25 μM LA1, unlike Mn2+. As to the method: The flow chamber assay was performed as described in literature (Chen, J. F., Salas, A. & Springer, T. A. Bistable regulation of integrin adhesiveness by a bipolar metal ion cluster. Nat. Struct. Biol. 10, 995-1001 (2003)). A polystyrene Petri dish was coated with a 5 mm diameter, 20 μL spot of 20 μg/mL purified h-ICAM-1/Fc (R&D) or 20 μg/mL Fibrinogen in coating buffer (PBS, 10 mM NaHCO3, pH 9.0) for 1 hour at 37° C., followed by 2% BSA in coating buffer for 1 hour at 37° C. to block nonspecific binding sites. Transient transfected 293T cells were washed twice with wash buffer (20 mM Hepes, 150 mM NaCl, pH 7.4, 5 mM EDTA/0.5% BSA), subsequently once with HBS containing 1 mM Ca^2+ and 1 mM Mg^2+ (HBS^++), and finally resuspended at the concentration of 5×10^6/mL in HBS^++ ([…], 0.5% BSA) and kept on ice. Cells were incubated in 2% DMSO with or without 25 μM LA1 at 37° C. for 30 minutes. And subsequently infused in the flow chamber using a Harvard apparatus programmable syringe pump. Cells were allowed to settle down for 5 minutes, and accumulate for 30 seconds at 0.3 dyn/cm^2 and 10 seconds at 0.4 dyn/cm^2. […] The number of cells remaining abound at the end of each 10-sec interval were determined. Rolling velocity at each shear stress was calculated from the average distance traveled by rolling cells in 3 seconds. […]

In data set [4] the test system is C57BL/6J mice. Kind of data set: Survival after sublethal total body irradiation. Conditions: 20 μg/animal for seven days. The format is in vivo. As to the method:
Control groups (16 mice per group) of 6-8 weeks old C57BL/6J mice received a single sublethal dose (6 Gy) of total body radiation (TBI) and were monitored for survival with radiation alone. The experimental groups (16 mice per group) of 6-8 weeks old C57BL/6J received a single sublethal dose (6 Gy) of total body radiation (TBI) and were administered leukadherin LA1 (20 μg/animal) for seven consecutive days. Additionally, two additional control groups of animals were monitored—animals with no treatment at all or animals that were administered LA1 for seven consecutive days in the absence of any irradiation.

Data set [5] has as its system allograft transplantation. The data set is described as follows: Allograft transplantation model (kidney). It counts as in vivo. The note with it: co-treatment with cyclosporine.
Data set [6] relates to T cells from the draining lymph nodes. Kind of data set: IFN production by antigen-reactive T cells (MOG-peptide). The format is cell-based, mice. Conditions: antigen dose-dependent. How it is done:
Additionally, LA1 decreased IFN-[…] production by T-cells in an antigen dose-dependent fashion (MOG-peptide, data not shown) when antigen-reactive T cells from the draining lymph nodes of mice were assessed.

As for `O=C(O)c1ccc(-c2ccc(/C=C3\SC(=S)N(Cc4ccccc4)C3=O)o2)cc1` [LA1], the “mRNA levels of pro-inflammatory factors upregulated by LPS” value in data set [1] is “significantly reduced”. Moreover, the “adhesion of primary rat macrophages to immobilized fibrinogen” value in data set [2] is on record as “significantly enhanced the level of macrophage adhesion”. Also, the “adhesive behavior of CD11b/CD18 transfectants under wall shear stress (conformation induced)” value in data set [3] is “induces priming of CD11b/CD18 and converts it into intermediate conformation”. For the same compound, in data set [4] (with or without 6 Gy TBI), the animal mortality result is recorded as “did not result in any increase in animal mortality”. In addition, the “effect on survival after sublethal TBI” value in data set [4] (6 Gy TBI) is “protective effect”. In data set [5], the “engraftment of the donated kidney” value was “much better engraftment”. In data set [6], the “IFN-[…] production by T-cells” value is on record as “decreased”.
